Calls of active or inactive are those of the source. The calls are words filed in the database; no cut-off is given here.
Key:
HEL = experiment: cells; assay type: functional, cell-based; details: Homo sapiens, 48 h
Description: Antiproliferative activity against HEL cells assessed as inhibition of cell growth measured after 48 hrs by MTT assay

Histone deacetylase 2 = Histone deacetylase 2 (Homo sapiens, UniProt Q92769); experiment: Inhibition of HDAC2 (unknown origin) using fluorogenic substrate incubated for 30 mins by fluorescence based assay
KG-1 = experiment: Antiproliferative activity against human KG-1 cells assessed as inhibition of cell growth measured after 48 hrs by MTT assay; assay type: functional, cell-based; details: KG-1, 48 h
[1] = Toxicity in C57BL/6J mouse implanted with mouse B16-F10 cells assessed as spleen damage at 60 mg/kg, IG administered for 12 days H and E staining based histopathological analysis; assay type: organism-based; details: in vivo, po, 288 h, time 12 day
B16-F10 [2] = experiment: Antitumor activity against mouse B16-F10 cells xenografted in C57BL/6J mouse assessed as change in tumor cell morphology into normal tissue at 60 mg/kg, IG administered for 12 days by H and E staining based histopathological analysis; assay type: functional, organism-based; details: time 12.0 day
[3] = Toxicity in C57BL/6J mouse implanted with mouse B16-F10 cells assessed as effect on body weight at 60 mg/kg, IG administered for 12 days; assay type: organism-based; details: in vivo, po, 288 h, time 12 day
B16-F10 [4] = experiment: Antitumor immunity against mouse B16-F10 cells implanted in C57BL/6J mouse assessed as fold reduction in Treg cells in spleen by flow cytometry analysis relative to control; assay type: functional
Histone deacetylase 1 = Histone deacetylase 1 (Homo sapiens, UniProt Q13547); experiment: Inhibition of HDAC1 (unknown origin) using fluorogenic substrate incubated for 30 mins by fluorescence based assay
[5] = Toxicity in C57BL/6J mouse implanted with mouse B16-F10 cells assessed as liver damage at 60 mg/kg, IG administered for 12 days H and E staining based histopathological analysis; assay type: organism-based; details: in vivo, po, 288 h, time 12 day
B16-F10 [6] = experiment: Antitumor activity against mouse B16-F10 cells implanted in C57BL/6J mouse assessed as reduction on tumor size at 60 mg/kg, IG administered for 12 days; assay type: functional, organism-based; details: time 12.0 day
[7] = molecular target: T1, Protein deacetylase HDAC6 (Homo sapiens, UniProt Q9UBN7); experiment: Inhibition of HDAC6 (unknown origin) using fluorogenic substrate incubated for 30 mins by fluorescence based assay
T1 sequence (Q9UBN7 whole entry): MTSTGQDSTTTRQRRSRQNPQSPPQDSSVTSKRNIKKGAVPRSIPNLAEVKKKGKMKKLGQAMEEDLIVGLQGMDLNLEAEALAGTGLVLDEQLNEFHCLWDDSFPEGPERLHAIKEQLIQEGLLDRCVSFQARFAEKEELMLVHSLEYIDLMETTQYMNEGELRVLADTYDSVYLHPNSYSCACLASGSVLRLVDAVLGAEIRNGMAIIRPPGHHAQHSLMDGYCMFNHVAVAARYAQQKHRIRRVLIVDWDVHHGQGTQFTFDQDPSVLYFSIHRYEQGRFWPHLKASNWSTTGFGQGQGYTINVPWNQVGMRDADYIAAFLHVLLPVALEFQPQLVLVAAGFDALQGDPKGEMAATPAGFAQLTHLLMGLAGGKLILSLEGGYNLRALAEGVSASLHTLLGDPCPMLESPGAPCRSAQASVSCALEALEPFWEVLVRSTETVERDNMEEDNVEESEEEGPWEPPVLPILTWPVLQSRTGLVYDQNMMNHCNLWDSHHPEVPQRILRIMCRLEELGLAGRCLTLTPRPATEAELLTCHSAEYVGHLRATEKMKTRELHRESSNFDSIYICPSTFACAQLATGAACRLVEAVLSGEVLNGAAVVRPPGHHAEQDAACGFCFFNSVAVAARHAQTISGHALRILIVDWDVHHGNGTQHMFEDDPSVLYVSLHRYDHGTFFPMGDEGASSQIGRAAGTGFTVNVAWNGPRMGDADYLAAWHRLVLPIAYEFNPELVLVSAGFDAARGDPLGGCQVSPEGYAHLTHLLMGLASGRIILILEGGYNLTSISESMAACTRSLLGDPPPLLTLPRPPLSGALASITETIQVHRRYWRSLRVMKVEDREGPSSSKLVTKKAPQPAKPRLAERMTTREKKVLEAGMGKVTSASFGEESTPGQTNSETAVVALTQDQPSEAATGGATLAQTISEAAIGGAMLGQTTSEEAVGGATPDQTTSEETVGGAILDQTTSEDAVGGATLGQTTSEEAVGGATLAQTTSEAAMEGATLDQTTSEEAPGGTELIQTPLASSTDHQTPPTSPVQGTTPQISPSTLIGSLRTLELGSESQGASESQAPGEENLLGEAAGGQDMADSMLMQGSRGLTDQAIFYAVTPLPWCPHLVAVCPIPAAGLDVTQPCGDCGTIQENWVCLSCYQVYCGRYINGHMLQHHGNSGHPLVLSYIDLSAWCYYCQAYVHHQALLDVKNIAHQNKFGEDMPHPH

B16-F10 [8] = experiment: Antitumor immunity against mouse B16-F10 cells implanted in C57BL/6J mouse assessed as fold increase in proportion of macrophages in spleen by flow cytometry analysis relative to control; assay type: functional
Histone deacetylase 8 = molecular target: T2, Histone deacetylase 8 (Homo sapiens, UniProt Q9BY41); experiment: Inhibition of HDAC8 (unknown origin) using fluorogenic substrate incubated for 30 mins by fluorescence based assay
T2 sequence (Q9BY41 whole entry): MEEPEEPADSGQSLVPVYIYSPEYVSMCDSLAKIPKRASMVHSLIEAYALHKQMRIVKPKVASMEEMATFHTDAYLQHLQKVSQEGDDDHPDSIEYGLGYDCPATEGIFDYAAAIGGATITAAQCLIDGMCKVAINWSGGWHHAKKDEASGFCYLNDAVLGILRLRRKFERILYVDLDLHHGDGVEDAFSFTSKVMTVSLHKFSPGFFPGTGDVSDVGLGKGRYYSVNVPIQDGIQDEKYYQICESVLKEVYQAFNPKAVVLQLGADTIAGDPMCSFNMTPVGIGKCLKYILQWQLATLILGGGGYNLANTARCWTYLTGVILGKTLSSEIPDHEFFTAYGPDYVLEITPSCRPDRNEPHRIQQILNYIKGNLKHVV

B16-F10 [9] = experiment: Antitumor immunity against mouse B16-F10 cells implanted in C57BL/6J mouse assessed as fold increase in CD86 expression by flow cytometry analysis relative to control; assay type: functional
B16-F10 [10] = experiment: Antitumor immunity against mouse B16-F10 cells implanted in C57BL/6J mouse assessed as fold increase in downregulation of CD200R expression in spleen by flow cytometry analysis relative to control; assay type: functional
[11] = Toxicity in C57BL/6J mouse implanted with mouse B16-F10 cells assessed as heart damage at 60 mg/kg, IG administered for 12 days H and E staining based histopathological analysis; assay type: organism-based; details: in vivo, po, 288 h, time 12 day
HepG2 = experiment: cells; assay type: functional, cell-based; details: Homo sapiens, HepG2, 48 h
Description: Antiproliferative activity against human HepG2 cells assessed as inhibition of cell growth measured after 48 hrs by MTT assay

B16-F10 [12] = experiment: Induction of apoptosis in mouse B16-F10 cells at 5 to 10 uM measured after 24 hrs by Annexin V-FITC/propidium iodide staining based flow cytometry analysis; assay type: functional, cell-based; details: dose 5-10 µM
PC-3 = experiment: cells; assay type: functional, cell-based; details: Homo sapiens, PC-3, 48 h
Description: Antiproliferative activity against human PC3 cells assessed as inhibition of cell growth measured after 48 hrs by MTT assay

B16-F10 [13] = experiment: Antitumor activity against mouse B16-F10 cells implanted in C57BL/6J mouse assessed as reduction on tumor weight at 60 mg/kg, IG administered for 12 days; assay type: functional, organism-based; details: time 12.0 day

Chain of Histone deacetylase 1 (Q13547 whole entry): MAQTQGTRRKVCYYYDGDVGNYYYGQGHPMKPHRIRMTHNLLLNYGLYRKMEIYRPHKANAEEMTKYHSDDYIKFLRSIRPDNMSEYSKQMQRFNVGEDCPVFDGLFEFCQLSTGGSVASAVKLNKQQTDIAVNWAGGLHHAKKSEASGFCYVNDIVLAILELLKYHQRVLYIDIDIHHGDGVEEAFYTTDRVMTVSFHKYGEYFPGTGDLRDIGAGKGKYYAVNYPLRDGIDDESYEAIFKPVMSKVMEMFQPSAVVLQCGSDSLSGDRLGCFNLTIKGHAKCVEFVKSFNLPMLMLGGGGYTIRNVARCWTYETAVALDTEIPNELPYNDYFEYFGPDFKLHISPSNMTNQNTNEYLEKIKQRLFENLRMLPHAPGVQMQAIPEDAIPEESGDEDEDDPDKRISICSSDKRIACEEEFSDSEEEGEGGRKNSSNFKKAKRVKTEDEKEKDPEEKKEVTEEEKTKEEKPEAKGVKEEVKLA
Chain of Histone deacetylase 2 (Q92769 whole entry): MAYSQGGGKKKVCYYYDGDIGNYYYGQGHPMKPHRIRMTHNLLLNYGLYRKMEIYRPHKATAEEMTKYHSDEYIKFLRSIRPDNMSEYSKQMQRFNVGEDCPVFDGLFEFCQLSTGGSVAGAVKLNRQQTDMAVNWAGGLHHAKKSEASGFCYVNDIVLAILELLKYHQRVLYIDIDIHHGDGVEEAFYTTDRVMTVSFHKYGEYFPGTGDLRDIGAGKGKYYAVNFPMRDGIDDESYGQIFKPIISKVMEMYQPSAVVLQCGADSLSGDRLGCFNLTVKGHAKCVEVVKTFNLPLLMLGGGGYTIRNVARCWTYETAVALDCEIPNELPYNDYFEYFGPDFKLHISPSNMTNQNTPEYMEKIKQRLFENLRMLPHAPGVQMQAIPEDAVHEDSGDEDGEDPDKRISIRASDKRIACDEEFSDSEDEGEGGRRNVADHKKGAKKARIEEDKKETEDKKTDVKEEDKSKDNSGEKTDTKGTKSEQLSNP

IC50 (HEL) [nM] | IC50 (Histone deacetylase 2) [nM] | IC50 (Histone deacetylase 1) [nM] | IC50 [7] [nM] | IC50 (Histone deacetylase 8) [nM] | IC50 (HepG2) [nM] | IC50 (PC-3) [nM] | Compound | IC50 (KG-1) [nM] | Activity [1] | Activity (B16-F10 [2]) | Activity [3] | fold change (FC) (B16-F10 [4]) | Activity [5] | Activity (B16-F10 [6]) | fold change (FC) (B16-F10 [8]) | fold change (FC) (B16-F10 [9]) | fold change (FC) (B16-F10 [10]) | Activity [11] | Activity (B16-F10 [12]) | Activity (B16-F10 [13])
360 | 91 | 52 | 9.2 | 12.9 | 4800 | 7900 | O=C(CCCCCCCOc1cccc(-c2nc3ccccc3[nH]2)c1)NO | 3400 | Non-Toxic | Active | Non-Toxic | 1.5 | Non-Toxic | Active | 1.6 | 1.3 | 1.3 | Non-Toxic | Active | Active
20 | 46 | 24 | 47 | 5980 | 3900 | 2700 | O=C(CCCCCCOc1cccc(-c2nc3ccccc3[nH]2)c1)NO | 190 | Non-Toxic | Active | Non-Toxic | 1.5 | Non-Toxic | Active | 1.6 | 1.3 | 1.3 | Non-Toxic | Active | Active

From ChEMBL document CHEMBL5038666, “Discovery of DNA-Targeting HDAC Inhibitors with Potent Antitumor Efficacy In Vivo That Trigger Antitumor Immunity” (J Med Chem, 2022)
